Reference: PubChem BioAssay (NCI)
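Cultured in 96-well plates, cells were exposed to test compound for 48 hours across five concentrations. At the GI50, growth is halved. TGI: concentration producing complete growth inhibition.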

Columns and labels:
Test in all cases: NCI anticancer screen, dose series, 48 h
IGROV1 ovarian = tested on: IGROV1 ovarian
SK-MEL-2 melanoma = tested on: SK-MEL-2 melanoma
SF-268 CNS = tested on: SF-268 CNS
HL-60(TB) leukemia = tested on: HL-60(TB) leukemia
SK-OV-3 ovarian = tested on: SK-OV-3 ovarian
COLO 205 colon = tested on: COLO 205 colon
UACC-257 melanoma = tested on: UACC-257 melanoma
CCRF-CEM leukemia = tested on: CCRF-CEM leukemia
TK-10 renal = tested on: TK-10 renal
OVCAR-3 ovarian = tested on: OVCAR-3 ovarian
SR leukemia = tested on: SR leukemia
HCC-2998 colon = tested on: HCC-2998 colon
U251 CNS = tested on: U251 CNS
NCI-H226 lung = tested on: NCI-H226 lung
OVCAR-4 ovarian = tested on: OVCAR-4 ovarian
SW-620 colon = tested on: SW-620 colon
LOX IMVI melanoma = tested on: LOX IMVI melanoma
MDA-MB-435 = tested on: MDA-MB-435
SK-MEL-28 melanoma = tested on: SK-MEL-28 melanoma
SNB-75 CNS = tested on: SNB-75 CNS
DU-145 prostate = tested on: DU-145 prostate
MDA-MB-231 breast = tested on: MDA-MB-231 breast
HCT-15 colon = tested on: HCT-15 colon
HOP-92 NSCLC = tested on: HOP-92 NSCLC
K-562 leukemia = tested on: K-562 leukemia
MOLT-4 leukemia = tested on: MOLT-4 leukemia
HCT-116 colon = tested on: HCT-116 colon
NCI/ADR-RES ovarian = tested on: NCI/ADR-RES ovarian
EKVX NSCLC = tested on: EKVX NSCLC
HS 578T breast = tested on: HS 578T breast
A498 renal = tested on: A498 renal
NCI-H460 lung = tested on: NCI-H460 lung
HOP-62 NSCLC = tested on: HOP-62 NSCLC
SN12C renal = tested on: SN12C renal
NCI-H23 lung = tested on: NCI-H23 lung
OVCAR-8 ovarian = tested on: OVCAR-8 ovarian
UACC-62 melanoma = tested on: UACC-62 melanoma
SF-539 CNS = tested on: SF-539 CNS
ACHN renal = tested on: ACHN renal
SF-295 CNS = tested on: SF-295 CNS
PC-3 prostate = tested on: PC-3 prostate
UO-31 renal = tested on: UO-31 renal
786-0 renal = tested on: 786-0 renal
KM12 colon = tested on: KM12 colon
HT29 colon = tested on: HT29 colon
CAKI-1 renal = tested on: CAKI-1 renal
SK-MEL-5 melanoma = tested on: SK-MEL-5 melanoma
A549 NSCLC = tested on: A549 NSCLC
RPMI-8226 leukemia = tested on: RPMI-8226 leukemia
M14 melanoma = tested on: M14 melanoma
RXF 393 renal = tested on: RXF 393 renal
MALME-3M melanoma = tested on: MALME-3M melanoma
BT-549 breast = tested on: BT-549 breast
MCF7 breast = tested on: MCF7 breast
OVCAR-5 ovarian = tested on: OVCAR-5 ovarian
NCI-H522 lung = tested on: NCI-H522 lung
SNB-19 CNS = tested on: SNB-19 CNS

CC(=O)Nc1ccc(Sc2ccc([N+](=O)[O-])o2)cc1 gave a GI50 (IGROV1 ovarian) of 1.27 µM, a TGI (IGROV1 ovarian) of 4.27 µM and a GI50 (SK-MEL-2 melanoma) of 2.31 µM. The TGI (SK-MEL-2 melanoma) was 6.29 µM, the GI50 (SF-268 CNS) was 3.16 µM and the TGI (SF-268 CNS) was 11.8 µM. For the same compound, the GI50 (HL-60(TB) leukemia) was 1.29 µM, the TGI (HL-60(TB) leukemia) was 3.79 µM and the GI50 (SK-OV-3 ovarian) was 8.37 µM. The TGI (SK-OV-3 ovarian) was 20.6 µM, the GI50 (COLO 205 colon) was 0.651 µM and the TGI (COLO 205 colon) was 1.82 µM. For the same compound, the GI50 (UACC-257 melanoma) was 1.61 µM, the TGI (UACC-257 melanoma) was 3.52 µM and the GI50 (CCRF-CEM leukemia) was 0.886 µM. For the same compound, the TGI (CCRF-CEM leukemia) was 3.93 µM, the GI50 (TK-10 renal) was 2.13 µM and the TGI (TK-10 renal) was 5.99 µM. For the same compound, the GI50 (OVCAR-3 ovarian) was 0.664 µM, the TGI (OVCAR-3 ovarian) was 1.95 µM and the GI50 (SR leukemia) was 2.8 µM. It also gave a TGI (SR leukemia) of 12.6 µM, a GI50 (HCC-2998 colon) of 1.9 µM and a TGI (HCC-2998 colon) of 3.52 µM. For the same compound, the GI50 (U251 CNS) was 3.06 µM, the TGI (U251 CNS) was 11 µM and the GI50 (NCI-H226 lung) was 2.88 µM. It also gave a TGI (NCI-H226 lung) of 8.7 µM, a GI50 (OVCAR-4 ovarian) of 2.27 µM and a TGI (OVCAR-4 ovarian) of 5.1 µM. It also gave a GI50 (SW-620 colon) of 0.767 µM, a TGI (SW-620 colon) of 2.22 µM and a GI50 (LOX IMVI melanoma) of 1.45 µM. For the same compound, the TGI (LOX IMVI melanoma) was 3.05 µM, the GI50 (MDA-MB-435) was 1.7 µM and the TGI (MDA-MB-435) was 3.44 µM. For the same compound, the GI50 (SK-MEL-28 melanoma) was 1.75 µM, the TGI (SK-MEL-28 melanoma) was 3.6 µM and the GI50 (SNB-75 CNS) was 2.78 µM. It also gave a TGI (SNB-75 CNS) of 12.8 µM, a GI50 (DU-145 prostate) of 2.26 µM and a TGI (DU-145 prostate) of 5.98 µM. It also gave a GI50 (MDA-MB-231 breast) of 2.18 µM, a TGI (MDA-MB-231 breast) of 4.95 µM and a GI50 (HCT-15 colon) of 0.806 µM. The TGI (HCT-15 colon) was 3.18 µM, the GI50 (HOP-92 NSCLC) was 1.76 µM and the TGI (HOP-92 NSCLC) was 3.55 µM. The GI50 (K-562 leukemia) was 2.22 µM, the TGI (K-562 leukemia) was greater than 30.8 µM and the GI50 (MOLT-4 leukemia) was 2.14 µM. For the same compound, the TGI (MOLT-4 leukemia) was 6.42 µM, the GI50 (HCT-116 colon) was 0.924 µM and the TGI (HCT-116 colon) was 2.75 µM. For the same compound, the GI50 (NCI/ADR-RES ovarian) was 2.88 µM, the TGI (NCI/ADR-RES ovarian) was 11.3 µM and the GI50 (EKVX NSCLC) was 4.46 µM. For the same compound, the TGI (EKVX NSCLC) was 25.2 µM, the GI50 (HS 578T breast) was 3.87 µM and the TGI (HS 578T breast) was 24.9 µM. For the same compound, the GI50 (A498 renal) was 12.2 µM, the TGI (A498 renal) was 25 µM and the GI50 (NCI-H460 lung) was 2.83 µM. For the same compound, the TGI (NCI-H460 lung) was 8.93 µM, the GI50 (HOP-62 NSCLC) was 3.37 µM and the TGI (HOP-62 NSCLC) was 10.5 µM. It also gave a GI50 (SN12C renal) of 2.96 µM, a TGI (SN12C renal) of 10.7 µM and a GI50 (NCI-H23 lung) of 2.99 µM. The TGI (NCI-H23 lung) was 10.2 µM, the GI50 (OVCAR-8 ovarian) was 3.06 µM and the TGI (OVCAR-8 ovarian) was 13.4 µM. The GI50 (UACC-62 melanoma) was 1.83 µM, the TGI (UACC-62 melanoma) was 3.84 µM and the GI50 (SF-539 CNS) was 3.13 µM. It also gave a TGI (SF-539 CNS) of 11 µM, a GI50 (ACHN renal) of 1.62 µM and a TGI (ACHN renal) of 4.29 µM. It also gave a GI50 (SF-295 CNS) of 10.4 µM, a TGI (SF-295 CNS) of 23.5 µM and a GI50 (PC-3 prostate) of 2.23 µM. The TGI (PC-3 prostate) was 6.58 µM, the GI50 (UO-31 renal) was 3.9 µM and the TGI (UO-31 renal) was 13 µM. It also gave a GI50 (786-0 renal) of 2.69 µM, a TGI (786-0 renal) of 7.55 µM and a GI50 (KM12 colon) of 2.84 µM. For the same compound, the TGI (KM12 colon) was 9.08 µM, the GI50 (HT29 colon) was 1.56 µM and the TGI (HT29 colon) was 3.25 µM. It also gave a GI50 (CAKI-1 renal) of 1.41 µM, a TGI (CAKI-1 renal) of 3.06 µM and a GI50 (SK-MEL-5 melanoma) of 3.32 µM. The TGI (SK-MEL-5 melanoma) was 11.4 µM, the GI50 (A549 NSCLC) was 6.37 µM and the TGI (A549 NSCLC) was 23.3 µM. It also gave a GI50 (RPMI-8226 leukemia) of 2.13 µM, a TGI (RPMI-8226 leukemia) of 8.65 µM and a GI50 (M14 melanoma) of 2.08 µM. For the same compound, the TGI (M14 melanoma) was 4.09 µM, the GI50 (RXF 393 renal) was 0.929 µM and the TGI (RXF 393 renal) was 3.46 µM. For the same compound, the GI50 (MALME-3M melanoma) was 2.09 µM, the TGI (MALME-3M melanoma) was 4.77 µM and the GI50 (BT-549 breast) was 5.22 µM. It also gave a TGI (BT-549 breast) of 10.6 µM, a GI50 (MCF7 breast) of 1.88 µM and a TGI (MCF7 breast) of 6.92 µM. For the same compound, the GI50 (OVCAR-5 ovarian) was 2.34 µM, the TGI (OVCAR-5 ovarian) was 5.9 µM and the GI50 (NCI-H522 lung) was 0.214 µM. It also gave a TGI (NCI-H522 lung) of 0.711 µM, a GI50 (SNB-19 CNS) of 10.1 µM and a TGI (SNB-19 CNS) of 23.2 µM.
